Patent publication US20080076827A1, “Treatment of Inflammatory Bowel Disease” (priority 2004, published 2008)

Key:
[1] = test system: TNFα; experiment: LPS-induced TNF alpha release in mice; format: in vivo, Balb C ByJ mice; conditions: oral route, 30 min before 1 mg/kg i.p. LPS; serum 2 hours after LPS; ELISA
Method: 7 week-old Balb C ByJ mice (24-28 g) were administered, either by i.p. (5 ml/kg) or oral (10 ml/kg) administration, with vehicle or test article. 30 minutes later these animals were challenged with an intraperitoneal injection of 1 mg/kg LPS. 2 hours after LPS challenge, blood samples were collected under light isoflurane anaesthesia into normal tubes by retro-orbital puncture. Samples were allowed to clot at room temperature and then spun at 6000 g for 3 min at 4° C. Serum was stored at −20° C. until use. Serum TNFα and IL-10 levels were analysed in duplicate by ELISA technique.

[2] = test system: dextran sulphate-induced colonic inflammation; experiment: Dextran sulphate-induced IBD model; format: in vivo, BDF1 male mice; conditions: rectal route twice a day for 5 days
Method: 8-10 week-old BDF1 male mice (˜30 g) were housed in normal conditions. At the start of the study, normal water was exchanged for a 2.5% dextran sulphate solution to induce colonic inflammation. Concurrently actarit and the positive control budesonide were administered rectally twice a day for 5 days. On day 6 the animals were sacrificed and the large intestine was removed. The lower two-thirds were assessed for histological severity (scoring system; 1 mild to 4 severe).

## CC(=O)Nc1ccc(CC(=O)O)cc1 [actarit, 4-(acetylamino)benzeneacetic acid]
[1]
  inhibition of serum TNFalpha levels after intraperitoneal LPS administration: dose-dependant inihibition of TNFalpha levels
[2]; 2.5% dextran sulphate in drinking water, large intestine assessed day 6
  pathological and histological lesions: can ameliorate pathological and histological lesions
[2]; 2.5% dextran sulphate, compared with 0.1 mg/kg rectal budesonide
  gross histological scores (scoring system; 1 mild to 4 severe): reduced gross histological scores induced by dextran sulphate in the drinking water of BDF1 mice, over and above the effect seen for 0.1 mg/kg rectal budesonide
